Experimental data taken from paper PMC12213745, “Compounds from Cyclocarya paliurus leaves inhibit binary division of methicillin-resistant Staphylococcus aureus by disrupting FtsZ dynamic” (Frontiers in Microbiology, 2025).
Values joined by “and” are separate entries in the source; they are usually repeats but may differ in a detail not shown here. Equal values may be shown once. Read-outs that look alike come from different tables or passages of the source.

What was measured:
[1] = test system: S. enterica subsp. Enterica (1.1114); experiment: MIC, broth microdilution (CLSI); assay type: cell-based, Salmonella enterica subsp. enterica; conditions: Salmonella enterica; S. enterica subsp. Enterica (1.1114); ≥ 90% growth inhibition, 18–24 h; read-out: MIC
Text: Staphylococcus aureus ATCC25923 and Escherichia coli ATCC25922 were obtained from the American Type Culture Collection (ATCC, Manassas, VA, USA). The Methicillin-resistant S. aureus (MRSA) clinical isolate MRSA-4, previously confirmed as mecA-positive and characterized for its antibiotic resistance profile ([Sun et al., 2023]), was used in this study. Staphylococcus epidermidis (GDMCC 1.143), Enterococcus faecalis (GDMCC 1.164), and Salmonella enterica subsp. enterica (GDMCC 1.1114) were obtained from the Guangdong Microbial Culture Collection Center (GDMCC, Guangzhou, China). The Pseudomonas aeruginosa PA14 strain was kindly provided by Professor Min Wu (Southwest Medical University, China). All bacterial strains were routinely cultured in Mueller-Hinton broth (MHB) or Luria-Bertani (LB) broth medium at 37°C with shaking at 200 rpm. Vancomycin was purchased from Solarbio Science & Technology Co., Ltd. (Beijing, China), and oxacillin was obtained from Taiji Group Hengsheng Pharmaceutical Co., Ltd. (Chengdu, China). The polyclonal rabbit primary anti-body to FtsZ was purchased from Abcam PLC (Cambridge, UK). Alexa488-conjugated goat anti-rabbit IgG was purchased from ZSGB-BIO Biotechnology (Beijing, China). DAPI staining solution was purchased from Beyotime Biotechnology (Shanghai, China).
The minimum inhibitory concentrations (MICs) of the test compounds (AA, MA, and UA) were determined using the standard broth microdilution method in accordance with the Clinical and Laboratory Standards Institute (CLSI) guidelines ([Humphries et al., 2021]). Bacteria were cultured in MHB or LB broth at 37°C with shaking (200 rpm) to the logarithmic phase, then diluted to a final density of 1 × 10^6 CFU/mL. Test compounds (dissolved in DMSO) and positive controls (vancomycin and oxacillin) were diluted in MHB and serially twofold diluted in 96-well plates. Each well was inoculated with 100 μL of bacterial suspension (1 × 10^6 CFU/mL), yielding a final bacterial density of 5 × 10^5 CFU/mL and a total volume of 200 μL. The final concentrations tested were 128 to 1 μg/mL for AA, MA, and UA; 16 to 0.5 μg/mL for vancomycin; and 64 to 0.0625 μg/mL for oxacillin. DMSO was used as a solvent control. Plates were incubated statically at 37°C for 18–24 h. After incubation, the OD600 was measured using a microplate reader (SpectraMax i3x, Molecular Devices, CA, USA). The MIC was defined as the lowest compound concentration that caused ≥ 90% inhibition of bacterial growth compared to the drug-free growth control. All tests were performed in three independent biological replicates.
Following the isolation and identification of AA, MA, and UA from ECPL, we evaluated their antibacterial activity and spectrum. The MICs of the compounds were determined against MRSA-4, S. aureus ATCC25923, S. epidermidis, and E. faecalis (Gram-positive), as well as P. aeruginosa PA14, E. coli ATCC25922, and S. enterica subsp. Enterica (Gram-negative) using the standard broth microdilution method in accordance with CLSI guidelines ([Humphries et al., 2021]).

MRSA-4 = experiment: TEM analysis of septum formation; assay type: cell-based, Methicillin-resistant S. aureus; conditions: 1 × MIC, 4 h
Protocol: MRSA-4 was cultured in MHB to mid-log phase as described above. The cultures were then treated with AA, MA, or UA (at 1 × MIC) or with an equal volume of PBS (negative control) for 4 h at 37°C. After treatment, bacterial suspensions were collected by centrifugation at 13,000 × g for 3 min, and the resulting pellets were washed with PBS. Pellets were fixed in 2.5% glutaraldehyde prepared in 0.1 M cacodylate buffer (pH 7.2). Following fixation, samples were dehydrated in a graded ethanol series (30 to 100%), with 100% ethanol replaced three times. Samples were infiltrated with acetone/Epon-812 resin mixtures at ratios of 3:1, 1:1, and 1:3, then embedded in pure Epon-812 resin. Ultrathin sections (60–90 nm) were cut and placed on copper grids. The sections were stained with saturated uranyl acetate for 10–15 min, followed by lead citrate for 1–2 min. Structural and morphological changes in the bacterial cells were observed using a JEOL JEM-1400FLASH transmission electron microscope (JEOL, Japan).
We first evaluated the impact of AA, MA, and UA on septum formation in MRSA-4 cells using TEM. MRSA-4 cultures were treated with AA, MA, or UA at 1 × MIC for 4 h, with PBS-treated cells serving as the control. […] These abnormalities imply that AA, MA, and UA disrupt the septum formation process, which is essential for successful cell division.

SaFtsZ = molecular target: T1, SaFtsZ (Staphylococcus aureus, UniProt P0A031); experiment: Surface plasmon resonance analysis; assay type: binding, S. aureus; conditions: SPR, immobilized SaFtsZ, 25°C, steady-state
T1 construct: purchased Cytoskeleton, Inc. FTZ02
T1 sequence (P0A031 1-390): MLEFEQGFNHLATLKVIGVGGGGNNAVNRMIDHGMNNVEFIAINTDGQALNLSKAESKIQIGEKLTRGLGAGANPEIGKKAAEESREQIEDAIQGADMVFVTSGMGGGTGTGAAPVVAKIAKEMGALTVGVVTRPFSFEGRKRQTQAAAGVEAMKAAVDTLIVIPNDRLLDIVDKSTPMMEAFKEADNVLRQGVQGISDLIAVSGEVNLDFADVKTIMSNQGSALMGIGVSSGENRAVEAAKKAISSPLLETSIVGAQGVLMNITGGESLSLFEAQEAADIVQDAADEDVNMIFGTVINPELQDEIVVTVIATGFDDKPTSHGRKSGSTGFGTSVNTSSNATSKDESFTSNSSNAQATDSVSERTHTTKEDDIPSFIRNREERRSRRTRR
Protocol: SPR analysis was performed using a Biacore X100 system (Cytiva, USA) equipped with a CM5 sensor chip at 25°C. SaFtsZ protein was immobilized onto the chip surface via standard amine coupling. Briefly, flow cells 1 (Fc1) and 2 (Fc2) were activated with a 1:1 mixture of 0.4 M EDC and 0.1 M NHS for 7 min. The SaFtsZ protein was diluted to 40 μg/mL in 0.1 M sodium acetate buffer (pH 4.0) and immobilized onto Fc2. The response units (RU) reaching an immobilization level of approximately 4693.2. Unreacted sites in both flow cells were blocked with ethanolamine for 7 min. Subsequently, analyte solutions containing test compounds at varying concentrations were injected over both flow cells, and binding responses were monitored in real time. Data analysis was performed using Biacore Evaluation Software v2.0.2.
We first performed SPR spectroscopy to experimentally measure the binding affinities of AA, MA, and UA for immobilized SaFtsZ protein.

[2] = read-out: equilibrium dissociation constant (Kd)

Row | SMILES | MIC [1] [µg/mL] | septum formation (TEM) (MRSA-4) | Kd (SaFtsZ; equilibrium dissociation constant (Kd)) [nM] | Kd (SaFtsZ; [2])
1 | C[C@H]1[C@H](C)CC[C@]2(C(=O)O)CC[C@]3(C)C(=CC[C@@H]4[C@@]5(C)C[C@@H](O)[C@H](O)[C@@](C)(CO)[C@@H]5CC[C@]43C)[C@H]12 [AA, asiatic acid] | > 128 | incomplete, mislocalized, or absent septa | 2400 | –
2 | C[C@H]1[C@H](C)CC[C@]2(C(=O)O)CC[C@]3(C)C(=CC[C@@H]4[C@@]5(C)CC[C@H](O)C(C)(C)[C@@H]5CC[C@]43C)[C@H]12 [UA, ursolic acid] | > 128 | incomplete, mislocalized, or absent septa | – | 700 nM and 663 nM
3 | CC1(C)CC[C@]2(C(=O)O)CC[C@]3(C)C(=CC[C@@H]4[C@@]5(C)C[C@@H](O)[C@H](O)C(C)(C)[C@@H]5CC[C@]43C)[C@@H]2C1 [MA, maslinic acid] | > 128 | incomplete, mislocalized, or absent septa | – | 9800 nM and 9760 nM
